According to the CheMixHub ionic liquid set:

Assay: xn = mol fraction of the nth substance listed

CCCCCCCCCCCCCC[n+]1ccccc1.O=C([O-])C(O)c1ccccc1 + C[C@H](N)C(=O)O + O
electrical conductivity [S/m], 101 kPa
Settings	293.15 K	298.15 K	303.15 K	308.15 K	313.15 K
x1 = 5.26e-06, x2 = 0.001799	0.00177	0.00202	0.00228	0.00255	0.00285
x1 = 6.85e-06, x2 = 0	0.00248	0.00278	0.00309	0.0034	0.0037
x1 = 7.23e-06, x2 = 0.0009002	0.00232	0.00263	0.00296	0.00329	0.0036
x1 = 1.107e-05, x2 = 0.001799	0.00339	0.00385	0.0043	0.00479	0.0053
x1 = 1.32e-05, x2 = 0.0009002	0.00408	0.00462	0.00517	0.0057	0.0063
x1 = 1.424e-05, x2 = 0	0.00472	0.00529	0.00587	0.0065	0.0071
x1 = 1.688e-05, x2 = 0.001799	0.00492	0.00558	0.00625	0.007	0.0077
x1 = 1.79e-05, x2 = 0.0009002	0.00545	0.00618	0.0069	0.0077	0.0084
x1 = 2.126e-05, x2 = 0	0.00671	0.0076	0.0084	0.0093	0.0101
x1 = 2.178e-05, x2 = 0.001799	0.00627	0.00713	0.008	0.0088	0.0098
x1 = 2.206e-05, x2 = 0.0009002	0.0066	0.0075	0.0084	0.0093	0.0102
x1 = 2.64e-05, x2 = 0.0009002	0.00784	0.0089	0.0099	0.011	0.0121
x1 = 2.686e-05, x2 = 0.001799	0.00759	0.0086	0.0097	0.0107	0.0118
x1 = 2.811e-05, x2 = 0	0.0086	0.0097	0.0108	0.0122	0.0131
x1 = 3.092e-05, x2 = 0.0009002	0.0091	0.0103	0.0115	0.0128	0.014
x1 = 3.158e-05, x2 = 0.001799	0.0088	0.01	0.0112	0.0124	0.0137
x1 = 3.46e-05, x2 = 0	0.0103	0.0116	0.0129	0.0145	0.0157
x1 = 3.653e-05, x2 = 0.0009002	0.0105	0.0119	0.0133	0.0148	0.0163
x1 = 3.702e-05, x2 = 0.001799	0.0101	0.0114	0.0128	0.0143	0.0158
x1 = 4.108e-05, x2 = 0	0.0117	0.0131	0.0146	0.0161	0.0179
x1 = 4.376e-05, x2 = 0.0009001	0.0119	0.0135	0.015	0.0168	0.0186
x1 = 4.392e-05, x2 = 0.001799	0.0113	0.0128	0.0143	0.016	0.0178
x1 = 4.811e-05, x2 = 0	0.0129	0.0144	0.0161	0.0179	0.0198
x1 = 5.045e-05, x2 = 0.0009001	0.0129	0.0146	0.0163	0.0184	0.0203
x1 = 5.136e-05, x2 = 0.001799	0.0124	0.0139	0.0156	0.0175	0.0195
x1 = 5.388e-05, x2 = 0	0.0137	0.0154	0.0172	0.0191	0.0211
x1 = 5.768e-05, x2 = 0.0009001	0.014	0.0158	0.0177	0.0198	0.022
x1 = 5.861e-05, x2 = 0.001799	0.0134	0.0151	0.0169	0.019	0.0211
x1 = 5.982e-05, x2 = 0	0.0145	0.0163	0.0182	0.0202	0.0224
x1 = 6.383e-05, x2 = 0.0009001	0.0148	0.0168	0.0188	0.021	0.0233
x1 = 6.559e-05, x2 = 0	0.0153	0.0172	0.0192	0.0213	0.0236
x1 = 6.569e-05, x2 = 0.001799	0.0143	0.0161	0.0181	0.0201	0.0224
x1 = 6.998e-05, x2 = 0.0009001	0.0157	0.0177	0.0198	0.0222	0.0246
x1 = 7.081e-05, x2 = 0	0.016	0.018	0.02	0.0223	0.0246
x1 = 7.222e-05, x2 = 0.001799	0.0151	0.0171	0.0192	0.0214	0.0236
x1 = 7.595e-05, x2 = 0.0009001	0.0165	0.0187	0.0209	0.0234	0.026
x1 = 7.604e-05, x2 = 0	0.0167	0.0187	0.0209	0.0232	0.0258
x1 = 7.839e-05, x2 = 0.001799	0.0159	0.018	0.0201	0.0225	0.0251
x1 = 8.072e-05, x2 = 0	0.0173	0.0194	0.0217	0.0241	0.0266

CCC(=O)OC + O=S(=O)([N-]S(=O)(=O)C(F)(F)F)C(F)(F)F.[Li+]
298.1 K, 100 kPa, x2 = 0.333
Settings	electrical conductivity [S/m]	viscosity [mPa·s]
–	0.23	21.6

CCCCCCCCCCCCOS(=O)(=O)[O-].CCCC[n+]1ccn(C)c1 + O
Settings	viscosity [mPa·s]
333 K, 101 kPa, x1 = 0.06262	970000
